This note sets out measurements from EPA's ToxValDB 9.5 (doi:10.2903/j.efsa.2011.2020).

One series concerns Apis mellifera. Conditions: acute; dermal; mortality.
The subject of another series is Coturnix japonica. The note with it: acute, oral, mortality.
In the next series the test system is Oncorhynchus mykiss. The note with it: acute; duration: 96 hours; mortality.
The test system of another series is Rattus norvegicus. Conditions: for LD50: acute, mortality.
A further series has as its system Aphidius rhopalosiphi. Put plainly: LR50; higher = less toxic. The note with it: not reported; mortality.
A further series relates to Typhlodromus pyri. Nature of the series: LR50; higher = less toxic. The note with it: not reported; mortality.

Usually NOAEL stands for the highest dose or exposure tested at which no adverse effect was seen.

Converted amounts (≈) assume the structure as drawn. Some results are limits rather than exact numbers.

In the case of `NC(=O)Cc1cccc2ccccc12` [1-Naphthaleneacetamide], the LD50 in the series with Apis mellifera is over 100 µg/piece; in the series on Coturnix japonica, over 2000 mg/kg-day; in the series with Mus musculus (acute, oral, F, mortality), 1930 mg/kg-day; in the series on Rattus norvegicus (oral, M), 1660 mg/kg-day; in the series with Rattus norvegicus (oral), over 5050 mg/kg-day. For the same compound, the LC50 with Coturnix japonica (diet) stood at 4370 mg/kg-day; with Oncorhynchus mykiss, 44 µg/mL (≈ 238 µM). The NOAEL was determined as 195 mg/kg-day in the series with Mus musculus (chronic, duration: 18 months, other); 43.8 mg/kg-day in the series on Rattus norvegicus (chronic, duration: 2 years, organ weight); 15 mg/kg-day in the series with Rattus norvegicus (developmental, development); 10 mg/kg-day in the series on Rattus norvegicus (subchronic, duration: 90 days, oral, hematological); 5 mg/kg-day in the series with Rattus norvegicus (subchronic, duration: 90 days, oral, organ weight). Further, the LR50 with Aphidius rhopalosiphi and with Typhlodromus pyri was over 40 g/ha in each case.
